Experimental data: US20260102401A1, “Combination Therapies” (MIRATI THERAPEUTICS, INC., priority 2022, published 2026)

Test system: H2122 cells
Test: H2122 cell-line derived xenograft model, tumor volumes
Assay type: in vivo, nude/nude mice
Details: for tumor growth inhibition: Day 17, single agent, H2122 xenograft, 100 mg/kg Compound 478 or 50 mg/kg olaparib p.o. daily; for Average Tumor Volumes: H2122 tumor bearing mice, 100 mg/kg Compound 478 and/or 50 mg/kg olaparib p.o. daily
Description: Immunocompromised nude/nude mice were inoculated in the right hind flank with cells or patient derived tumor samples harboring a KRas G12C mutation. When tumor volumes reach ˜300 mm^3 in size, the mice were divided into four groups of 5 mice each. The first group was administered vehicle only. […] The fourth group was orally administered the single agent dose of the KRas G12C inhibitor in combination with the single agent dose of the PARP inhibitor at the matched schedule. The treatment period was 17 days. Tumor volumes were measured using a caliper every two-three days and tumor volumes are calculated by the formula: […].
For example, twenty nude/nude mice were inoculated in the right hind limb with 5×10^6 H2122 cells. When tumor volume reached ˜300 mm^3 (Study Day 1), 5 mice in each of the […] groups were administered p.o. daily for 32 days: vehicle only (10% Captisol in 50 mM citrate buffer pH5.0), 100 mg/kg of KRas G12C inhibitor Compound 478 (10% Captisol in 50 mM citrate buffer, pH 5.0), 50 mg/kg of the PARP inhibitor olaparib (10% Captisol in 50 mM citrate buffer, pH 5.0), or 100 mg/kg of KRas G12C inhibitor Compound 478 and 50 mg/kg of olaparib. Dosing stopped on day 17 for all groups due to large tumor growth in the vehicle and Olaparib only groups.

Structure (SMILES)	tumor growth inhibition	Average Tumor Volumes (Study Day 3)	Average Tumor Volumes (Study Day 6)	Average Tumor Volumes (Study Day 10)	Average Tumor Volumes (Study Day 13)	Average Tumor Volumes (Study Day 17)	Average Tumor Volumes (Study Day −1 (before dosing))
C=C(F)C(=O)N1CCN(c2nc(OC[C@@H]3CCCN3C)nc3c2CCN(c2cccc4cccc(Cl)c24)C3)C[C@@H]1CC#N [Compound 478, adagrasib]	89%	290.578 mm^3	301.744 mm^3	326.222 mm^3	345.38 mm^3	360.308 mm^3	284.794 mm^3
O=C(c1cc(Cc2n[nH]c(=O)c3ccccc23)ccc1F)N1CCN(C(=O)C2CC2)CC1 [Olaparib, 4-[[3-[4-(cyclopropanecarbonyl)piperazine-1-carbonyl]-4-fluorophenyl]methyl]-2H-phthalazin-1-one]	0%	451.342 mm^3	558.15 mm^3	776.514 mm^3	848.664 mm^3	1058.96 mm^3	292.194 mm^3
